Reference: ChEMBL document CHEMBL5303573, “Mapping human microbiome drug metabolism by gut bacteria and their genes” (Nature, 2019)

Key:
[1] = bacteroides fragilis, 12 h, 2 µM
Description: The drug is tested on Bacteroides fragilis strain: 3397 (T10) for biotransformation. The drug concentrations were measured before and after a 12-h incubation by liquid-chromatography-coupled mass spectrometry (LC–MS)

[2] = The drug is tested on Clostridium asparagiforme strain: DSM15981 for biotransformation. The drug concentrations were measured before and after a 12-h incubation by liquid-chromatography-coupled mass spectrometry (LC–MS); assay type: ADME; set-up: dose 2 uM, timepoint 0 vs 12 hours; conditions: enterocloster asparagiformis, 2 µM
[3] = The drug is tested on Bacteroides vulgatus strain: ATCC8482 for biotransformation. The drug concentrations were measured before and after a 12-h incubation by liquid-chromatography-coupled mass spectrometry (LC–MS); conditions: phocaeicola vulgatus, 2 µM
[4] = bifidobacterium adolescentis, 12 h, 2 µM
Description: The drug is tested on Bifidobacterium adolescentis strain: ATCC 15703 for biotransformation. The drug concentrations were measured before and after a 12-h incubation by liquid-chromatography-coupled mass spectrometry (LC–MS)

[5] = The drug is tested on Coprococcus comes strain: ATCC27758 for biotransformation. The drug concentrations were measured before and after a 12-h incubation by liquid-chromatography-coupled mass spectrometry (LC–MS); assay type: ADME; set-up: dose 2 uM, timepoint 0 vs 12 hours; conditions: 2 µM
[6] = roseburia intestinalis, 12 h, 2 µM
Description: The drug is tested on Roseburia intestinalis strain: L1-82 for biotransformation. The drug concentrations were measured before and after a 12-h incubation by liquid-chromatography-coupled mass spectrometry (LC–MS)

[7] = bacteroides eggerthii, 12 h, 2 µM
Description: The drug is tested on Bacteroides eggerthii strain: DSM20697 for biotransformation. The drug concentrations were measured before and after a 12-h incubation by liquid-chromatography-coupled mass spectrometry (LC–MS)

[8] = bacteroides stercoris, 12 h, 2 µM
Description: The drug is tested on Bacteroides stercoris strain: ATCC43183 for biotransformation. The drug concentrations were measured before and after a 12-h incubation by liquid-chromatography-coupled mass spectrometry (LC–MS)

[9] = limosilactobacillus reuteri cf48-3a, 12 h, 2 µM
Description: The drug is tested on Lactobacillus reuteri CF48-3A strain: BEI HM-102 for biotransformation. The drug concentrations were measured before and after a 12-h incubation by liquid-chromatography-coupled mass spectrometry (LC–MS)

[10] = parabacteroides johnsonii, 12 h, 2 µM
Description: The drug is tested on Parabacteroides johnsonii strain: DSM18315 for biotransformation. The drug concentrations were measured before and after a 12-h incubation by liquid-chromatography-coupled mass spectrometry (LC–MS)

[11] = The drug is tested on Bacteroides uniformis strain: ATCC8492 for biotransformation. The drug concentrations were measured before and after a 12-h incubation by liquid-chromatography-coupled mass spectrometry (LC–MS); conditions: 2 µM
[12] = The drug is tested on Bacteroides xylanisolvens strain: DSM18836 for biotransformation. The drug concentrations were measured before and after a 12-h incubation by liquid-chromatography-coupled mass spectrometry (LC–MS); conditions: 2 µM
[13] = The drug is tested on Ruminococcus torques strain: ATCC27756 for biotransformation. The drug concentrations were measured before and after a 12-h incubation by liquid-chromatography-coupled mass spectrometry (LC–MS); assay type: ADME; set-up: dose 2 uM, timepoint 0 vs 12 hours; conditions: 2 µM
[14] = The drug is tested on Providencia rettgeri strain: DSM1131 for biotransformation. The drug concentrations were measured before and after a 12-h incubation by liquid-chromatography-coupled mass spectrometry (LC–MS); assay type: ADME; set-up: dose 2 uM, timepoint 0 vs 12 hours; conditions: 2 µM
[15] = akkermansia muciniphila, 12 h, 2 µM
Description: The drug is tested on Akkermansia muciniphila strain: ATCC BAA-835 for biotransformation. The drug concentrations were measured before and after a 12-h incubation by liquid-chromatography-coupled mass spectrometry (LC–MS)

[16] = The drug is tested on Clostridium sporogenes strain: ATCC15579 for biotransformation. The drug concentrations were measured before and after a 12-h incubation by liquid-chromatography-coupled mass spectrometry (LC–MS); conditions: 2 µM
[17] = The drug is tested on Eubacterium rectale strain: ATCC33656 for biotransformation. The drug concentrations were measured before and after a 12-h incubation by liquid-chromatography-coupled mass spectrometry (LC–MS); conditions: agathobacter rectalis, 2 µM
[18] = The drug is tested on Odoribacter splanchnicus strain: fecal isolate for biotransformation. The drug concentrations were measured before and after a 12-h incubation by liquid-chromatography-coupled mass spectrometry (LC–MS); conditions: 2 µM
[19] = The drug is tested on Bifidobacterium ruminantium strain: fecal isolate for biotransformation. The drug concentrations were measured before and after a 12-h incubation by liquid-chromatography-coupled mass spectrometry (LC–MS); conditions: 2 µM
[20] = bacteroides fragilis, 12 h, 2 µM; remark: listed apart in the source
Description: The drug is tested on Bacteroides fragilis strain: DS-208 for biotransformation. The drug concentrations were measured before and after a 12-h incubation by liquid-chromatography-coupled mass spectrometry (LC–MS)

Row | SMILES | Bacterial Biotransformation [1] | Bacterial Biotransformation [2] | Bacterial Biotransformation [3] | Bacterial Biotransformation [4] | Bacterial Biotransformation [5] | Bacterial Biotransformation [6] | Bacterial Biotransformation [7] | Bacterial Biotransformation [8] | Bacterial Biotransformation [9] | Bacterial Biotransformation [10] | Bacterial Biotransformation [11] | Bacterial Biotransformation [12] | Bacterial Biotransformation [13] | Bacterial Biotransformation [14] | Bacterial Biotransformation [15] | Bacterial Biotransformation [16] | Bacterial Biotransformation [17] | Bacterial Biotransformation [18] | Bacterial Biotransformation [19] | Bacterial Biotransformation [20]
1 | Cc1cc2c(cc1S(N)(=O)=O)S(=O)(=O)CCC2 | Compound NOT metabolized | Compound NOT metabolized | Compound NOT metabolized | Compound NOT metabolized | Compound NOT metabolized | Compound NOT metabolized | Compound NOT metabolized | Compound NOT metabolized | Compound NOT metabolized | Compound NOT metabolized | Compound NOT metabolized | Compound NOT metabolized | Compound NOT metabolized | Compound NOT metabolized | Compound NOT metabolized | Compound NOT metabolized | Compound NOT metabolized | Compound NOT metabolized | Compound NOT metabolized | Compound NOT metabolized
2 | CC(=O)OCC(=O)[C@@]1(OC(C)=O)[C@@H](C)C[C@H]2[C@@H]3C[C@H](F)C4=CC(=O)C=C[C@]4(C)[C@@]3(F)[C@@H](O)C[C@@]21C [DIFLORASONE DIACETATE] | Compound metabolized | Compound metabolized | Compound metabolized | Compound metabolized | Compound NOT metabolized | Compound metabolized | Compound metabolized | Compound metabolized | Compound NOT metabolized | Compound metabolized | Compound metabolized | Compound metabolized | – | Compound metabolized | Compound metabolized | Compound metabolized | Compound NOT metabolized | Compound metabolized | Compound metabolized | Compound metabolized
3 | O=c1[nH]c2ccccc2n1CCCN1CCC(n2c(=O)[nH]c3cc(Cl)ccc32)CC1 [DOMPERIDONE] | Compound NOT metabolized | Compound NOT metabolized | Compound NOT metabolized | Compound NOT metabolized | Compound NOT metabolized | Compound NOT metabolized | Compound NOT metabolized | Compound NOT metabolized | Compound NOT metabolized | Compound NOT metabolized | Compound NOT metabolized | Compound NOT metabolized | Compound NOT metabolized | Compound NOT metabolized | Compound NOT metabolized | Compound NOT metabolized | Compound NOT metabolized | Compound NOT metabolized | Compound NOT metabolized | Compound NOT metabolized
4 | COC1=C(OC)C(=O)C(CCCCCCCCCCO)=C(C)C1=O [IDEBENONE] | Compound metabolized | Compound NOT metabolized | Compound metabolized | Compound NOT metabolized | Compound NOT metabolized | Compound NOT metabolized | Compound NOT metabolized | Compound NOT metabolized | Compound NOT metabolized | Compound NOT metabolized | Compound metabolized | Compound metabolized | Compound NOT metabolized | Compound NOT metabolized | Compound NOT metabolized | Compound metabolized | Compound NOT metabolized | Compound metabolized | Compound NOT metabolized | Compound metabolized
5 | CCC(C)n1ncn(-c2ccc(N3CCN(c4ccc(OCC5COC(Cn6cncn6)(c6ccc(Cl)cc6Cl)O5)cc4)CC3)cc2)c1=O (centres undefined) [ITRACONAZOLE] | Compound NOT metabolized | Compound NOT metabolized | Compound NOT metabolized | Compound NOT metabolized | Compound NOT metabolized | Compound NOT metabolized | Compound NOT metabolized | Compound NOT metabolized | Compound NOT metabolized | Compound NOT metabolized | Compound NOT metabolized | Compound NOT metabolized | Compound NOT metabolized | Compound NOT metabolized | Compound NOT metabolized | Compound NOT metabolized | Compound NOT metabolized | Compound NOT metabolized | Compound NOT metabolized | Compound NOT metabolized
6 | COc1ccccc1OCC(O)COC(N)=O (centres undefined) [METHOCARBAMOL] | Compound NOT metabolized | Compound NOT metabolized | Compound NOT metabolized | Compound NOT metabolized | Compound NOT metabolized | Compound NOT metabolized | Compound NOT metabolized | Compound NOT metabolized | Compound NOT metabolized | Compound NOT metabolized | Compound NOT metabolized | Compound NOT metabolized | Compound NOT metabolized | Compound NOT metabolized | Compound NOT metabolized | Compound NOT metabolized | Compound NOT metabolized | Compound NOT metabolized | Compound NOT metabolized | Compound NOT metabolized
